The values below come from patent publication US20240148821A1, “PHARMACEUTICAL USE OF CYCLIC PEPTIDE COMPOUND” (CHUGAI SEIYAKU KABUSHIKI KAISHA, priority 2021, published 2024).

Numbered stars: 1 amine (or outer) side, 2 acyl side, 3 side chain; on linkers, the order of the positions; unused ones are H or OH. Bridge positions count the residues as written; N and C are the ends. Square brackets hold non-standard residues; d marks the D form. Peptide text beside a SMILES is read from it. * marks the point of attachment. hPhe(3,5-F2-4-CF3) = N[C@@H](CCc1cc(F)c(C(F)(F)F)c(F)c1)C(=O)O; hPhe(3-Cl-4-CF3) = N[C@@H](CCc1ccc(C(F)(F)F)c(Cl)c1)C(=O)O; hPhe(3-F,4-CF3) = N[C@@H](CCc1ccc(C(F)(F)F)c(F)c1)C(=O)O; NEtPhe(4-CF3) = CCN[C@@H](Cc1ccc(C(F)(F)F)cc1)C(=O)O; NMePhe(4-CF3) = CN[C@@H](Cc1ccc(C(F)(F)F)cc1)C(=O)O; NMePhe(4-Me) = CN[C@@H](Cc1ccc(C)cc1)C(=O)O; NMePhe(3-F) = CN[C@@H](Cc1cccc(F)c1)C(=O)O; NMedβ3hAla = C[C@H](CC(=O)[*:2])N(C)[*:1]; NMeGly(cPent) = CN[C@H](C(=O)O)C1CCCC1; NMeCha = CN[C@@H](CC1CCCCC1)C(=O)O; Hyp = O=C(O)[C@@H]1C[C@@H](O)CN1; NMeChg = CN[C@H](C(=O)O)C1CCCCC1; NMeI = CC[C@H](C)[C@H](NC)C(=O)O; NMeD = CN[C@@H](CC(=O)O)C(=O)O; NMeL = CN[C@@H](CC(C)C)C(=O)O; d(β3hA) = C[C@@H](N)CC(=O)O; NMeS = CN[C@@H](CO)C(=O)O; NMeA = CN[C@@H](C)C(=O)O; Piperidide = C1CCN(*)CC1; Thz = O=C(O)[C@@H]1CSCN1; dNMeA = CN[C@H](C)C(=O)O; Ac5c = NC1(C(=O)O)CCCC1; Aze = O=C(O)[C@@H]1CCN1; CH2CMe2OH = CC(C)(O)C*; NBuGly = CCCCNCC(=O)O; Aib = CC(C)(N)C(=O)O; Isopentyl = CC(C)CC*; NEtG = CCNCC(=O)O; Sar = CNCC(=O)O

This test addresses protein-protein interaction between Kras and SOS1 (biotin-tagged human Kras loaded with GDP, His-tagged human SOS1) (Homo sapiens (Human), UniProt P01116, G12D). Description: Protein-protein interaction inhibition between Kras and SOS1 (KrasG12D-SOS PPI) using AlphaScreen.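 Also: kras produced in E. coli, Ni-coupled donor beads and streptavidin acceptor beads, excitation 680 nm with emission detected at 520–620 nm via singlet oxygen transfer.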 The following applies: AlphaScreen; biotin-tagged human Kras loaded with GDP, His-tagged human SOS1; read-out: KRAS G12D-SOS PPI IC50. It is filed as biochemical.
Take `CC[C@H](C)[C@@H]1NC(=O)[C@H](CC(C)C)N(C)C(=O)C[C@@H](C(=O)N2CCCCC2)N(C)C(=O)[C@H]([C@@H](C)CC)N(C)C(=O)C2(CCCC2)NC(=O)[C@@H]2CCCN2C(=O)[C@H](CCc2ccc(C(F)(F)F)c(F)c2)NC(=O)CN(C)C(=O)[C@H](CC2CCCCC2)N(C)C(=O)[C@@H]2CCN2C(=O)[C@H](C)N(C)C1=O` [Compound 409] ([NMeL]I[NMeA][Aze][NMeCha][Sar][hPhe(3-F,4-CF3)]P[Ac5c][NMeI][NMeD]-Piperidide; lactam N-11): the half-maximal inhibitory concentration (IC50) (as a rule, the concentration that gives 50% inhibition) stood at 2.4 nM. In the case of `CC[C@H](C)[C@@H]1NC(=O)[C@H](C)N(C)C(=O)C[C@@H](C)NC(=O)[C@H](C2CCCC2)N(C)C(=O)C2(CCCC2)NC(=O)[C@@H]2CCCN2C(=O)[C@H](CCc2ccc(C(F)(F)F)c(Cl)c2)NC(=O)CN(C)C(=O)[C@H](Cc2ccc(C(F)(F)F)cc2)N(C)C(=O)[C@@H]2CCN2C(=O)[C@H](C)N(C)C1=O` [Compound 1512] (cyclo([Ac5c][NMeGly(cPent)][d(β3hA)][NMeA]I[NMeA][Aze][NMePhe(4-CF3)][Sar][hPhe(3-Cl-4-CF3)]P)) it was 1.2 nM; in that of `CC[C@H](C)[C@@H]1NC(=O)[C@H](C)N(C)C(=O)C[C@@H](C)NC(=O)[C@H](C2CCCC2)N(C)C(=O)C2(CCCC2)NC(=O)[C@@H]2CCCN2C(=O)[C@H](CCc2ccc(C(F)(F)F)c(Cl)c2)NC(=O)[C@@H](C)N(C)C(=O)[C@H](Cc2cccc(F)c2)N(C)C(=O)[C@@H]2CCN2C(=O)[C@H](C)N(C)C1=O` [Compound 795] (cyclo([Ac5c][NMeGly(cPent)][d(β3hA)][NMeA]I[NMeA][Aze][NMePhe(3-F)][dNMeA][hPhe(3-Cl-4-CF3)]P)), 72 nM; in that of `CC[C@H](C)[C@@H]1NC(=O)[C@H](CC(C)C)N(C)C(=O)C[C@@H](C(=O)N2CCCCC2)N(C)C(=O)[C@H]([C@@H](C)CC)N(C)C(=O)C2(CCCC2)NC(=O)[C@@H]2CCCN2C(=O)[C@H](CCc2ccc(C(F)(F)F)c(Cl)c2)NC(=O)CN(C)C(=O)[C@H](Cc2ccc(C)cc2)N(C)C(=O)[C@@H]2CCN2C(=O)[C@H](C)N(C)C1=O` [Compound 1727] ([NMeL]I[NMeA][Aze][NMePhe(4-Me)][Sar][hPhe(3-Cl-4-CF3)]P[Ac5c][NMeI][NMeD]-Piperidide; lactam N-11), 1.2 nM. In the case of `CC[C@H](C)[C@@H]1NC(=O)[C@H](CC(C)C)N(C)C(=O)C[C@@H](C(=O)N2CCCCC2)N(C)C(=O)[C@H](C2CCCCC2)N(C)C(=O)C2(CCCC2)NC(=O)[C@@H]2CSCN2C(=O)[C@H](CCc2ccc(C(F)(F)F)c(Cl)c2)NC(=O)CN(C)C(=O)[C@H](CC2CCCCC2)N(C)C(=O)CN(C)C(=O)CN(C)C1=O` [Compound 1093] ([NMeL]I[Sar][Sar][NMeCha][Sar][hPhe(3-Cl-4-CF3)][Thz][Ac5c][NMeChg][NMeD]-Piperidide; lactam N-11) it was 0.73 nM. For `CC[C@H](C)[C@@H]1NC(=O)[C@H](CC(C)C)N(C)C(=O)C[C@@H](C)NC(=O)[C@H](CC(C)C)N(C)C(=O)C(C)(C)NC(=O)[C@H](COCC(C)(C)O)N(C)C(=O)[C@H](CCc2ccc(C(F)(F)F)c(Cl)c2)NC(=O)CN(CC)C(=O)[C@H](COCCC(C)C)N(C)C(=O)CN(C)C(=O)CN(C)C1=O` [Compound 1516] (cyclo([Aib][NMeL][d(β3hA)][NMeL]I[Sar][Sar][NMeS](Isopentyl)[NEtG][hPhe(3-Cl-4-CF3)][NMeS](CH2CMe2OH))) the value was 340 nM; for `CCCCN1CC(=O)N(C)[C@@H]([C@@H](C)CC)C(=O)N(C)[C@H](C(=O)N(C)C)CC(=O)N(C)[C@@H](CC(C)C)C(=O)N[C@@H]([C@@H](C)CC)C(=O)N(C)[C@@H](C)C(=O)N2CC[C@H]2C(=O)N(C)[C@@H](Cc2ccc(C)cc2)C(=O)N(C)CC(=O)N[C@@H](CCc2ccc(C(F)(F)F)c(Cl)c2)C(=O)N2CCC[C@H]2C1=O` [Compound 215] ([NMeL]I[NMeA][Aze][NMePhe(4-Me)][Sar][hPhe(3-Cl-4-CF3)]P[NBuGly][NMeI][NMeD]-NMe2; lactam N-11), 29 nM; for `CCO[C@@H]1C[C@H]2C(=O)NC3(CCCC3)C(=O)N(C)[C@@H](C3CCCC3)C(=O)N(C)[C@H](C)CC(=O)N(C)[C@@H](CC(C)C)C(=O)N[C@@H]([C@@H](C)CC)C(=O)N[C@@H](C)C(=O)N3CC[C@H]3C(=O)N(CC)[C@@H](Cc3ccc(C(F)(F)F)cc3)C(=O)N(C)CC(=O)N[C@@H](CCc3cc(F)c(C(F)(F)F)c(F)c3)C(=O)N2C1` [Compound 785] (cyclo(A[Aze][NEtPhe(4-CF3)][Sar][hPhe(3,5-F2-4-CF3)][Hyp](Et)[Ac5c][NMeGly(cPent)][NMedβ3hAla][NMeL]I)), 3.5 nM. For the compound `CC[C@H](C)[C@@H]1NC(=O)[C@H](CC(C)C)N(C)C(=O)C[C@@H](C)N(C)C(=O)[C@H](C2CCCCC2)N(C)C(=O)C2(CCCC2)NC(=O)[C@@H]2CCCN2C(=O)[C@H](CCc2cc(F)c(C(F)(F)F)c(F)c2)NC(=O)CN(C)C(=O)[C@H](Cc2ccc(C(F)(F)F)cc2)N(C)C(=O)[C@@H]2CCN2C(=O)[C@H](C)N(C)C1=O` [Compound 39] (cyclo([Ac5c][NMeChg][NMedβ3hAla][NMeL]I[NMeA][Aze][NMePhe(4-CF3)][Sar][hPhe(3,5-F2-4-CF3)]P)), the IC50 came to 11 nM.
